Results as given in BindingDB's records for doi:10.1016/s0960-894x(99)00213-9 (Cardiff University, 1999).

Key:
[1] = target: Dihydrofolate reductase (Trypanosoma cruzi); assay: Inhibitory activity against Trypanosoma cruzi dihydrofolate reductase
[2] = target: Dihydrofolate reductase (Trypanosoma cruzi); assay: as above; remark: listed apart in the source

| SMILES | Ki [1] [nM] | Ki [2] [nM] |
| --- | --- | --- |
| CCOC(=O)CCCCN(Cc1cnc2nc(N)nc(N)c2n1)c1ccc(C(=O)NC(CCC(=O)OCC)C(=O)OCC)cc1 (centres undefined) [2-{4-[(2,4-Diamino-pteridin-6-ylmethyl)-(4-ethoxycarbonyl-butyl)-amino]-benzoylamino}-pentanedioic acid diethyl ester] | 46 |  |
| CCOC(=O)CCCCCN(Cc1cnc2nc(N)nc(N)c2n1)c1ccc(C(=O)NC(CCC(=O)OCC)C(=O)OCC)cc1 (centres undefined) [2-{4-[(2,4-Diamino-pteridin-6-ylmethyl)-(5-ethoxycarbonyl-pentyl)-amino]-benzoylamino}-pentanedioic acid diethyl ester] | 56 |  |
| Nc1nc(N)c2nc(CN(CCCCC(=O)O)c3ccc(C(=O)NC(CCC(=O)O)C(=O)O)cc3)cnc2n1 (centres undefined) [2-{4-[(4-Carboxy-butyl)-(2,4-diamino-pteridin-6-ylmethyl)-amino]-benzoylamino}-pentanedioic acid] | 0.131 |  |
| Nc1nc(N)c2nc(CN(CCCCCC(=O)O)c3ccc(C(=O)NC(CCC(=O)O)C(=O)O)cc3)cnc2n1 (centres undefined) [2-{4-[(5-Carboxy-pentyl)-(2,4-diamino-pteridin-6-ylmethyl)-amino]-benzoylamino}-pentanedioic acid] |  | 0.183 |
